Laboratory results from ChEMBL document CHEMBL6120978, “Anticancer activity of salinomycin quaternary phosphonium salts” (Eur J Med Chem, 2025).
pIC50: −log10 of the molar value. Calls of active or inactive are those of the source. No cut-off for these calls is given here.

Experiments:
[1] = Cytotoxicity against human HaCaT cells incubated for 72 hrs by MTT assay; type: toxicity, cell-based
[2] = tested on: Staphylococcus epidermidis; test: Antimicrobial activity against Staphylococcus epidermidis ATCC 12228 incubated for 18 hrs by twofold microdilution method; type: functional
SW480 = test: Cytotoxicity against human SW480 cells incubated for 72 hrs by MTT assay; type: functional, cell-based; details: SW480, 72 h
[3] = Selectivity index, ratio of IC50 for cytotoxicity against chinese hamster V79 cells to IC50 for cytotoxicity against human SW620 cells; type: toxicity, cell-based; details: V79 cells versus SW620 cells, read-out: Ratio IC50
[4] = Selectivity index, ratio of IC50 for cytotoxicity against chinese hamster V79 cells to IC50 for cytotoxicity against human MDA-MB-231 cells; type: toxicity, cell-based; details: V79 cells versus MDA-MB-231 cells, read-out: Ratio IC50
[5] = Selectivity index, ratio of IC50 for cytotoxicity against chinese hamster V79 cells to IC50 for cytotoxicity against human A549 cells; type: toxicity, cell-based; details: V79 cells versus A549 cells, read-out: Ratio IC50
Staphylococcus aureus [6] = test: Antimicrobial activity against Staphylococcus aureus NCTC 4163 incubated for 18 hrs by twofold microdilution method; type: functional
[7] = Selectivity index, ratio of IC50 for cytotoxicity against human HaCaT cells to IC50 for cytotoxicity against human PC-3 cells; type: toxicity, cell-based; details: HaCaT cells versus PC-3 cells, read-out: Ratio IC50
Lipid bilayer [8] = test: Induction of ionic transport in azolectin bilayer membrane assessed as irregular disturbance in membrane permeability in presence of HEPES buffer by electrophysiology technique
MDA-MB-231 = test: Cytotoxicity against human MDA-MB-231 cells incubated for 72 hrs by MTT assay; type: functional, cell-based; details: MDA-MB-231, 72 h
A549 [9] = test: Cytotoxicity against human A549 cells incubated for 72 hrs by MTT assay; type: functional, cell-based; details: A549, 72 h
[10] = tested on: Staphylococcus epidermidis; test: Antimicrobial activity against Staphylococcus epidermidis ATCC 35984 incubated for 18 hrs by twofold microdilution method; type: functional
[11] = Cytotoxicity against chinese hamster V79 cells incubated for 72 hrs by MTT assay; type: toxicity, cell-based, Cricetulus griseus
[12] = Selectivity index, ratio of IC50 for cytotoxicity against human HaCaT cells to IC50 for cytotoxicity against human A549 cells; type: toxicity, cell-based; details: HaCaT cells versus A549 cells, read-out: Ratio IC50
PC-3 = test: Cytotoxicity against human PC-3 cells incubated for 72 hrs by MTT assay; type: functional, cell-based; details: PC-3, 72 h
Staphylococcus aureus [13] = test: Antimicrobial activity against Staphylococcus aureus ATCC 6538 incubated for 18 hrs by twofold microdilution method; type: functional
[14] = Selectivity index, ratio of IC50 for cytotoxicity against human HaCaT cells to IC50 for cytotoxicity against human SW620 cells; type: toxicity, cell-based; details: HaCaT cells versus SW620 cells, read-out: Ratio IC50
[15] = Selectivity index, ratio of IC50 for cytotoxicity against human HaCaT cells to IC50 for cytotoxicity against human MDA-MB-231 cells; type: toxicity, cell-based; details: HaCaT cells versus MDA-MB-231 cells, read-out: Ratio IC50
Lipid bilayer [16] = test: Induction of ionic transport in azolectin bilayer membrane assessed as specific channel-like structure formation in presence of HEPES buffer by electrophysiology technique
[17] = Selectivity index, ratio of IC50 for cytotoxicity against human HaCaT cells to IC50 for cytotoxicity against human SW480 cells; type: toxicity, cell-based; details: HaCaT cells versus SW480 cells, read-out: Ratio IC50
Staphylococcus aureus [18] = test: Antimicrobial activity against Staphylococcus aureus ATCC 25923 incubated for 18 hrs by twofold microdilution method; type: functional
Staphylococcus aureus [19] = test: Antimicrobial activity against Staphylococcus aureus ATCC 29213 incubated for 18 hrs by twofold microdilution method; type: functional
SW-620 = test: Cytotoxicity against human SW620 cells incubated for 72 hrs by MTT assay; type: functional, cell-based; details: SW-620, 72 h
Escherichia coli = test: Antimicrobial activity against Escherichia coli ATCC 25922 incubated for 18 hrs by twofold microdilution method; type: functional
A549 [20] = test: Induction of mitochondrial respiration in human A549 cells assessed as decrease in oxygen consumption rate at 3 uM by Oxygraph-2K system; type: functional, cell-based
Lipid bilayer [21] = test: Induction of ionic transport in azolectin bilayer membrane assessed as membrane rupture in presence of HEPES buffer by electrophysiology technique
[22] = Selectivity index, ratio of IC50 for cytotoxicity against chinese hamster V79 cells to IC50 for cytotoxicity against human PC-3 cells; type: toxicity, cell-based; details: V79 cells versus PC-3 cells, read-out: Ratio IC50
A549 [23] = test: Induction of mitochondrial respiration in human A549 cells assessed as fold increase in oxygen consumption rate at 1 uM by Oxygraph-2K system; type: functional
[24] = Selectivity index, ratio of IC50 for cytotoxicity against chinese hamster V79 cells to IC50 for cytotoxicity against human SW480 cells; type: toxicity, cell-based; details: V79 cells versus SW480 cells, read-out: Ratio IC50
Pseudomonas aeruginosa = test: Antimicrobial activity against Pseudomonas aeruginosa ATCC 15442 incubated for 18 hrs by twofold microdilution method; type: functional
Lipid bilayer [25] = test: Induction of current generation in azolectin bilayer membrane in presence of HEPES buffer by electrophysiology technique

- MIC [2]: 4 µg/mL
- MIC (Staphylococcus aureus [6]): 2 µg/mL
- Activity (Lipid bilayer [8]): inactive
- MIC [10]: 4 µg/mL
- MIC (Staphylococcus aureus [13]): 2 µg/mL
- Activity (Lipid bilayer [16]): inactive
- MIC (Staphylococcus aureus [18]): 4 µg/mL
- MIC (Staphylococcus aureus [19]): 4 µg/mL
- MIC (Escherichia coli): > 256 µg/mL
- Activity (Lipid bilayer [21]): inactive
- MIC (Pseudomonas aeruginosa): > 256 µg/mL
- Activity (Lipid bilayer [25]): Dose-dependent-effect
SMILES: CC[C@@H](C(=O)[C@@H](C)[C@@H](O)[C@H](C)[C@@H]1O[C@@H]([C@@H](CC)C(=O)OCCCC[P+](c2ccc(C)cc2)(c2ccc(C)cc2)c2ccc(C)cc2)CC[C@@H]1C)[C@H]1O[C@]2(C=C[C@@H](O)[C@]3(CC[C@@](C)([C@H]4CC[C@](O)(CC)[C@H](C)O4)O3)O2)[C@H](C)C[C@@H]1C.[Br-]
- IC50 at 72 h [1]: 1020 nM
- pIC50 (SW480): 6.36
- selectivity ratio [3]: 7.5
- selectivity ratio [4]: 4.5
- selectivity ratio [5]: 4.7
- selectivity ratio [7]: 0.5
- pIC50 (MDA-MB-231): 6.08
- pIC50 (A549 [9]): 6.09
- IC50 at 72 h [11]: 3770 nM
- selectivity ratio [12]: 1.3
- pIC50 (PC-3): 5.66
- selectivity ratio [14]: 2
- selectivity ratio [15]: 1.2
- selectivity ratio [17]: 2.3
- pIC50 (SW-620): 6.30
- Activity (A549 [20]): inactive
- selectivity ratio [22]: 1.7
- fold change (FC) (A549 [23]): 2.5
- selectivity ratio [24]: 8.6
